# Test results reported in patent US20210393636A1, “TREATMENT OF CNS AND DEVELOPMENTAL DISORDERS USING HIGH DOSE 5-FORMYL-(6S)-TETRAHYDROFOLATE” (priority 2019, published 2021).
# Experiments:
# [1] = Tissue distribution of folates 24 h after oral administration of folate forms (Example 2); format: in vivo, rats; conditions: for Total 5-MTHF + PGA in Brain: derived from cortex and cerebellum
# Description: (§1) This study evaluated the difference in folate absorption in non-pregnant rats, pregnant rats, pregnant rats injected with a control antibody, and pregnant rats injected with antibody to the folate receptor alpha. Eight (8) rats were assigned to each group for a total of thirty-two (32) rats. Two rats within each group were administered a single oral dose of PGA, 5-methyl-(6S)-THF, folinic acid or 5-formyl-(6S)-THF as a liquid solution and sacrificed at 24-hours to evaluate folate absorption patterns. The total amount of each form of folate administered to each rat was 4 mg/kg.
# Additional analyses were performed in various tissues of the pregnant and non-pregnant rats. For tissues other than serum, each tissue was collected, weighed and stored at −20 C. For the folate assay each tissue was suspended in 3 volumes of phosphate buffer containing 2% ascorbic acid pH 7.4 and homogenized using a polytron probe. An aliquot of this homogenate was diluted 10 fold in PO4 buffer PH 5.5 containing 0.2% ascorbic acid, in a glass tube, sealed and placed in a boiling water bath for 10 min. The tube was cooled to room temperature, precipitate removed by centrifugation and the clear supernatant assayed for folate. Brain concentrations were derived from cortex and cerebellum.
# [2] = Total folates in serum 24 h after oral administration of folate forms (Example 2); format: in vivo, rats; design: Total Folates in Serum (total 5-MTHF D- and L- plus folic acid): unit not given here; conditions: for Total Folates in Serum (total 5-MTHF D- and L- plus folic acid): 4 mg/kg oral, 24 h
# Description: as §1
# Serum was withdrawn immediately before the rat was sacrificed. For extraction of folate from serum, an aliquot of the serum was diluted in 3 volumes of phosphate buffer pH 5.5, placed in a boiling water bath for 10 min, cooled, the protein precipitate separated by centrifugation and the clear supernatant was assayed for folate concentration.
# [3] = Tissue distribution of folates 24 h after oral administration of folate forms to rat pups, with and without FR Ab (Example 3); format: in vivo; conditions: for Folate (mean), Cerebellum / Folate (mean), Cerebrum / Folate (mean), Kidney / Folate (mean), Liver: PND 21 rat pups, 4 mg/kg oral, 24 h
# Description: To determine tissue distribution of orally administered folate forms in young rat pups and study the effect of folate receptor antibodies on this distribution. PND 21 rat pups weighing about 50 g were administered folate forms orally at a dose of 4 mg/kg. Animals were euthanized after 24 h and tissues collected for analyzing total methylfolate in each tissue to provide a measure of normal distribution.
# [4] = Folate absorption in serum after single high-dose oral administration of different folates (Example 1)
# Description: For this study, 4 mg/kg folate was administered as a single dose to 250-300 g male Wistar rats. […] For each form of folate 4 time points of 30 min, 1 h, 2 h and 4 h were evaluated. For each time point 2 rats were used. The folate form dissolved in 0.5 ml buffered saline was administered orally using a blunt needle attached to a 1 ml syringe. The rats were euthanized by CO2 inhalation.
# Blood was drawn cardiac puncture, allowed to clot for 30 min, serum separated, diluted in equal volume of 4% ascorbate pH 7.2 and kept frozen at −20 C. Folate forms in the serum was determined by HPLC and the peaks were quantified by comparing to known standards as described below.
# Folate standards (5-MTHF, FA, THF and Formyl-THF) and 13C-labeled stable isotope internal standards (13C5-5-MTHF, 13C5-FA and 13C-Formyl-THF) were obtained from Schircks Laboratories (Switzerland). Formic acid, ascorbic acid and dithiothreitol (DTT) were obtained from Fluka and Optima LC-MS grade methanol from Fisher Scientific. Stock standards for each folate metabolite and internal standards were prepared as 1 mmol/L solutions in water containing 2 mg/mL ascorbic acid and stored at −80° C. Microtiter plates used for were purchased from NUNC.
# Liquid chromatography electrospray ionization mass spectrometry (LC-ESI-MS/MS) analysis of plasma 5-MTHF, FA, THF, Formyl-THF was performed on a Sciex 5500QTRAP mass spectrometer (Foster City, Calif., USA) coupled with a Shimadzu ultra-high pressure Nexera chromatograph system (Kyoto, Japan). The MS/MS experiments were performed under positive electrospray ionization (+ESI) with multiple-reaction monitoring (MRM) using a Turbolon Spray electrospray source operating at a voltage of 5.5 kV and desolvation temperature of 500° C. The calibration curve was prepared in water containing 2 mg/mL ascorbic acid over a range of 12.5-400 nmol/L for each folate analyte.
# Sample preparation involved combining 50 µl of blank, standard, control or sample with 10μ1 62.5 mM dithiothreitol, 20 mg/ml ascorbic acid and 2.5 μM 13C5-5-MTHF, 13C5-FA, 13C-Formyl-THF in 1.5 mL Eppendorf tubes, mixed by vortex and incubated for 10 minutes at room temperature in the dark. Next, samples were deproteinized with 5 volumes of methanol containing 2 mg/ml of ascorbic acid and vortexed and centrifuged at 14800 rpm for 10 minutes. Supernatant was loaded in a 96-well microtiter plate for analysis. The samples were analyzed following injection of 10 μL of extract on a Synergi Hydro 4μ 150×3 mm with a 4×2 mm SecurityGuard column (Phenomenex, Calif., USA) maintained at 40° C. (Phenomenex) and eluted in a gradient with buffer A (100% water with 0.1% formic acid) and buffer B (100% Methanol with 0.1% formic acid). The flow rate was 0.5 mL/min, with a gradient over a total run time of 6 min: 0.0-2.0 min, 0-100% B; 2.5 min, 100% B; 2.6-6.0 min, 0% B.
# Total analytical analysis, including column re-equilibration, was 6 minutes. Eluent flow from the column was diverted to waste at the beginning and end of each run and was only directed to the source for the period from 1.5-3.5 minutes. The LC-MS/MS data was acquired and processed using Analyst 1.5.2 software (Sciex).
# Values reported include both D- and L-forms.
# [5] = non-pregnant rats, without antibody, 4 mg/kg oral, 24 h
# [6] = pregnant rats, + Control IgG, 4 mg/kg oral, 24 h
# [7] = pregnant rats, + FRAb, 4 mg/kg oral, 24 h
# [8] = pregnant rats, w/o IgG, 4 mg/kg oral, 24 h
# [9] = serum, 4 mg/kg single oral dose, 0.5 hr
# [10] = serum, 4 mg/kg single oral dose, 1 hr
# [11] = serum, 4 mg/kg single oral dose, 2 hr
# [12] = serum, 4 mg/kg single oral dose, 4 hr
# [13] = male, Wistar, rat, in vivo, po, 4 mg/kg
# [14] = male, Wistar, rat, in vivo, po, 4 mg/kg, 0.5 h
# [15] = male, Wistar, rat, in vivo, po, 4 mg/kg, 1 h
# [16] = male, Wistar, rat, in vivo, po, 4 mg/kg, 2 h
# [17] = male, Wistar, rat, in vivo, po, 4 mg/kg, 4 h
compound,measurement,setting,value
Nc1nc2c(c(=O)[nH]1)N(C=O)[C@@H](CNc1ccc(C(=O)N[C@@H](CCC(=O)O)C(=O)O)cc1)CN2 [5-formyl-(6S)-tetrahydrofolate],"concentrations of folates in ovary, brain and cerebellum compared to 5-methyl-6S-THF",[1]; non-pregnant rats without folate receptor antibody,much better concentrations of folates
same,Total 5-MTHF + PGA in Cerebellum,[1]; [5],8.2
same,Total 5-MTHF + PGA in Cortex,[1]; [5],1.5
same,Total 5-MTHF + PGA in Kidney,[1]; [5],20.4
same,Total 5-MTHF + PGA in Liver,[1]; [5],93.0
same,Total 5-MTHF + PGA in Ovary,[1]; [5],9.8
same,Total 5-MTHF + PGA in Brain,[1]; [5],4.8
same,folate concentrations in placenta and embryo compared to 5-methyl-6S-THF or folinic acid,[1]; pregnant rats without folate receptor antibody,much better folate concentrations
same,Total 5-MTHF + PGA in Embryo,[1]; [6],2.8 ng/mg
same,Total 5-MTHF + PGA in Kidney,[1]; [6],19.8 ng/mg
same,Total 5-MTHF + PGA in Liver,[1]; [6],38.2 ng/mg
same,Total 5-MTHF + PGA in Ovary,[1]; [6],7.1 ng/mg
same,Total 5-MTHF + PGA in Placenta,[1]; [6],3.3 ng/mg
same,Total 5-MTHF + PGA in Brain,[1]; [6],4.8 ng/mg
same,Total 5-MTHF + PGA in Embryo,[1]; [7],2.3 ng/mg
same,Total 5-MTHF + PGA in Kidney,[1]; [7],14.3 ng/mg
same,Total 5-MTHF + PGA in Liver,[1]; [7],39.1 ng/mg
same,Total 5-MTHF + PGA in Ovary,[1]; [7],3.2 ng/mg
same,Total 5-MTHF + PGA in Placenta,[1]; [7],3.0 ng/mg
same,Total 5-MTHF + PGA in Brain,[1]; [7],3.5 ng/mg
same,Total 5-MTHF + PGA in Embryo,[1]; [8],7.2 ng/mg
same,Total 5-MTHF + PGA in Kidney,[1]; [8],20.2 ng/mg
same,Total 5-MTHF + PGA in Liver,[1]; [8],44.8 ng/mg
same,Total 5-MTHF + PGA in Ovary,[1]; [8],9.3 ng/mg
same,Total 5-MTHF + PGA in Placenta,[1]; [8],9.0 ng/mg
same,Total 5-MTHF + PGA in Brain,[1]; [8],2.0 ng/mg
same,Total Folates in Serum (total 5-MTHF D- and L- plus folic acid),[2]; Non-pregnant rats,27.5
same,concentrations of total folates in serum compared to other folate forms,[2]; especially pregnant rats injected with folate receptor antibody,superior concentrations of total folates
same,Total Folates in Serum (total 5-MTHF D- and L- plus folic acid),"[2]; pregnant rats, Control Ab + Form",247.1
same,Total Folates in Serum (total 5-MTHF D- and L- plus folic acid),"[2]; pregnant rats, FRAb + Form",228.8
same,Total Folates in Serum (total 5-MTHF D- and L- plus folic acid),"[2]; pregnant rats, Form Only",88.9
same,"Folate (mean), Cerebellum",[3]; + FRAb (100 ug IP 24 h prior),69.5 ng/mg
same,"Folate (mean), Cerebrum",[3]; + FRAb (100 ug IP 24 h prior),13.2 ng/mg
same,"Folate (mean), Kidney",[3]; + FRAb (100 ug IP 24 h prior),48.7 ng/mg
same,"Folate (mean), Liver",[3]; + FRAb (100 ug IP 24 h prior),133.44 ng/mg
same,"Folate (mean), Cerebellum",[3]; no FRAb,93.3 ng/mg
same,"Folate (mean), Cerebrum",[3]; no FRAb,15.3 ng/mg
same,"Folate (mean), Kidney",[3]; no FRAb,52.1 ng/mg
same,"Folate (mean), Liver",[3]; no FRAb,80.0 ng/mg
same,change of folates in the brain on antibody administration,[3]; antibody-treated pups vs pups without antibody,The opposite is observed
same,folate concentrations in cerebellum and cerebrum compared to 5-methyl-6S-THF,[3]; rat pups with and without the antibody,much higher folate concentrations
same,serum THF and 5-MTHF compared to folinic acid,[4]; especially at one hour,Much better
same,THF generation and total uptake compared to 5-methyl-(6S)-THF administration,"[4]; serum, 4 mg/kg oral",much greater
same,5-FoTHF,[4]; [9],68.2 ng/mL
same,THF,[4]; [9],22.9 ng/mL
same,Total Uptake,[4]; [9],252.6 ng/mL
same,5-MTHF,"[4]; serum, 4 mg/kg single oral dose, 0.5 hr, D- and L-forms",161.6 ng/mL
same,5-FoTHF,[4]; [10],97.3 ng/mL
same,THF,[4]; [10],35.8 ng/mL
same,Total Uptake,[4]; [10],375.0 ng/mL
same,5-MTHF,"[4]; serum, 4 mg/kg single oral dose, 1 hr, D- and L-forms",241.9 ng/mL
same,5-FoTHF,[4]; [11],19.7 ng/mL
same,THF,[4]; [11],9.0 ng/mL
same,Total Uptake,[4]; [11],162.9 ng/mL
same,5-MTHF,"[4]; serum, 4 mg/kg single oral dose, 2 hr, D- and L-forms",144.1 ng/mL
same,5-FoTHF,[4]; [12],7.0 ng/mL
same,THF,[4]; [12],39.1 ng/mL
same,Total Uptake,[4]; [12],216.1 ng/mL
same,5-MTHF,"[4]; serum, 4 mg/kg single oral dose, 4 hr, D- and L-forms",173.5 ng/mL
"Nc1nc2ncc(CNc3ccc(C(=O)N[C@@H](CCC(=O)O)C(=O)O)cc3)nc2c(=O)[nH]1 [Folic Acid, pteroylglutamic acid]",concentration at 0.5 h,[4]; [13],42.4 ng/mL
same,concentration at 1 h,[4]; [13],236 ng/mL
same,concentration at 2 h,[4]; [13],134 ng/mL
same,concentration at 4 h,[4]; [13],121 ng/mL
same,5-MTHF,[4]; [14],72.8 ng/mL
same,THF,[4]; [14],10.7 ng/mL
same,Total Uptake,[4]; [14],126.0 ng/mL
same,5-MTHF,[4]; [15],112.9 ng/mL
same,THF,[4]; [15],5.9 ng/mL
same,Total Uptake,[4]; [15],354.3 ng/mL
same,5-MTHF,[4]; [16],101.4 ng/mL
same,THF,[4]; [16],7.9 ng/mL
same,Total Uptake,[4]; [16],243.3 ng/mL
same,5-MTHF,[4]; [17],109.7 ng/mL
same,THF,[4]; [17],22.4 ng/mL
same,Total Uptake,[4]; [17],252.7 ng/mL
